Measured values as given in US20230390292A1, “REGIMENS FOR THE TREATMENT OF HAIR LOSS DISORDERS WITH DEUTERATED JAK INHIBITORS” (Sun Pharmaceutical Industries, Inc., priority 2020, published 2023).

Experiments:
Type in all cases: in vivo, human
[1] = test system: subjects with alopecia areata; assay: Open-label extension study (OLE), SALT score after dose reduction
Experimental: In an ongoing open-label extension study, subjects who were previously enrolled in a qualifying clinical study (including the study described in Example 1) and received either a total daily dose of 16 mg of Compound (I) (CTP-543, phosphate salt), a total daily dose of 24 mg of CTP-543, or placebo, and completed through the 24-week treatment period, were eligible to enroll in an open-label extension study (OLE) and continue to receive treatment with CTP-543 phosphate. A total of 152 subjects were enrolled in the OLE. In the OLE, subjects received daily treatment with CTP-543 at a dose of 8 mg BID or 12 mg BID (see FIG. 8). Dose adjustments were allowed at the investigator's discretion. One subject enrolled in the OLE, who received a daily dose of 24 mg QD of CTP-543 for approximately 9 months (i.e., the 24-week study period and the initial 3 months of the OLE), experienced hair growth at that dose (SALT score of zero, i.e., full regrowth of hair prior to dose reduction). The subject then had their dose reduced to a daily dose of 8 mg BID of CTP-543 phosphate. After approximately 7 months in the OLE receiving the lower daily dose of 8 mg BID of CTP-543, the subject continued to substantially maintain hair regrowth, with a SALT score of 7.92.

[2] = test system: adult patients with moderate-to-severe alopecia areata; assay: Phase 2a trial, safety (treatment emergent adverse events)
Experimental: (§1) A Phase 2a trial was conducted to evaluate the safety and efficacy of Compound (I) (CTP-543) in subjects with alopecia, with the primary efficacy analysis at week 24. The Phase 2a trial was a double-blind, randomized, placebo-controlled trial to evaluate the safety and efficacy of Compound (I) in adult patients with moderate-to-severe alopecia areata. Patients were sequentially randomized to receive one of three doses of Compound I as the phosphate salt (e.g., 10.5 mg of Compound (I) phosphate salt is equivalent to 8 mg of Compound (I) free base). The doses of Compound (I) were 4, 8 (i.e., about 10.5 mg of Compound (I) phosphate salt), and 12 mg twice daily, and there was also a patient group receiving placebo. The primary outcome measure utilized the severity of alopecia tool (SALT) after 24 weeks of dosing.
In the preliminary analysis of the placebo, 4 mg, and 8 mg groups, there were only 3 Grade 3/4 hematology events, distributed equally across the placebo, 4 mg, and 8 mg groups.

[3] = test system: adult patients with moderate-to-severe alopecia areata; assay: Phase 2a trial, efficacy by severity of alopecia tool (SALT)
Source text: The efficacy of treatment of hair loss disorders such as alopecia areata can be measured in a variety of ways, some of which are known in the art. For example, the “severity of alopecia tool”, otherwise known as SALT, is a validated assessment scale developed by the National Alopecia Areata Foundation working committee—to evaluate the degree of hair loss. See, e.g., Olsen E A, Hordinsky M K, Price V H, et al. Alopecia areata investigational assessment guidelines—Part II. J Am Acad Dermatol 2004: 51: 440-447 (incorporated herein by reference). The SALT score is calculated for a patient by measuring the percentage of hair loss in each of the 4 areas of the scalp and adding the total to achieve a composite score. Hair regrowth is reflected by a decrease in the SALT score. For example, no hair on the scalp would have a SALT score of 100 while complete hair regrowth would be a SALT score of 0. In certain embodiments, methods of treatment as described herein can provide a SALT score improvement of at least 10 points after treatment (for example, from a SALT score of 100 prior to treatment to a SALT score of 90 after treatment). In further embodiments, methods of treatment as described herein can provide a SALT score improvement of at least 20 points, 30 points, 40 points, 50 points, 60 points, 70 points, 80 points, 90 points, or 100 points. In certain embodiments, methods of treatment as described herein can provide after treatment at least a 20% improvement from baseline in the patient's SALT score, or at least a 30% improvement from baseline in the patient's SALT score, or at least a 40% improvement from baseline in the patient's SALT score, or at least a 50% improvement from baseline in the patient's SALT score, or at least a 60% improvement from baseline in the patient's SALT score, or at least a 70% improvement from baseline in the patient's SALT score, or at least a 75% improvement from baseline in the patient's SALT score or at least a 80% improvement from baseline in the patient's SALT score, or at least a 90% improvement from baseline in the patient's SALT score.
as §1
Interim top line analysis for the 4 mg, 8 mg, and 12 mg cohorts is discussed below. The primary endpoint for the study was a 50% relative reduction in SALT between Week 24 and baseline.
58% of patients treated with 12 mg BID (twice daily) and 47% of patients treated with 8 mg BID (twice daily) of CTP-543 achieved a ≥50% reduction in their overall SALT score compared to 8.6% placebo (p<0.001). In addition, 42% of patients treated with 12 mg BID (p<0.001) and 29% of patients treated with 8 mg BID (p<0.05) of CTP-543 achieved a ≥75% reduction in their overall SALT score compared to 7% placebo. Further, 36% of patients treated with 12 mg BID (p<0.001) and 16% of patients treated with 8 mg BID (p<0.05) of CTP-543 achieved a ≥90% reduction in their overall SALT score compared to 2% placebo. 21% of patients treated with 4 mg BID of CTP-543 achieved a ≥50% reduction in their overall SALT score compared to 8.6% placebo (not significant). […] Significant changes in SALT score were observed starting at 12 weeks for the 12 mg and 8 mg cohorts compared to placebo (p<0.05).

SMILES: [2H]C1([2H])C([C@@H](CC#N)n2cc(-c3ncnc4[nH]ccc34)cn2)C([2H])([2H])C([2H])([2H])C1([2H])[2H] [CTP-543, (R)-3-(4-(7H-pyrrolo[2,3-d]pyrimidin-4-yl)-1H-pyrazol-1-yl)-3-(cyclopentyl-2,2,3,3,4,4,5,5-d8)propanenitrile]
- SALT score prior to dose reduction ([1]; one subject, 24 mg QD for approximately 9 months): zero
- SALT score after dose reduction ([1]; same subject, approximately 7 months at 8 mg BID after 24 mg QD): 7.92
- Acne, patients (%) ([2]; 4 mg twice daily): 4 (13.8%)
- Blood creatine phosphokinase increased, patients (%) ([2]; 4 mg twice daily): 3 (10.3%)
- Cough, patients (%) ([2]; 4 mg twice daily): 4 (13.8%)
- Diarrhoea, patients (%) ([2]; 4 mg twice daily): 3 (10.3%)
- Folliculitis, patients (%) ([2]; 4 mg twice daily): 3 (10.3%)
- Headache, patients (%) ([2]; 4 mg twice daily): 5 (17.2%)
- LDL increase, patients (%) ([2]; 4 mg twice daily): 0
- Nasopharyngitis, patients (%) ([2]; 4 mg twice daily): 3 (10.3%)
- Nausea, patients (%) ([2]; 4 mg twice daily): 4 (13.8%)
- Oroharyngeal pain, patients (%) ([2]; 4 mg twice daily): 3 (10.3%)
- Upper respiratory tract infection, patients (%) ([2]; 4 mg twice daily): 2 (6.9%)
- Acne, patients (%) ([2]; 8 mg twice daily): 4 (10.5%)
- Blood creatine phosphokinase increased, patients (%) ([2]; 8 mg twice daily): 2 (5.3%)
- Cough, patients (%) ([2]; 8 mg twice daily): 1 (2.6%)
- Diarrhoea, patients (%) ([2]; 8 mg twice daily): 1 (2.6%)
- Folliculitis, patients (%) ([2]; 8 mg twice daily): 2 (5.3%)
- Headache, patients (%) ([2]; 8 mg twice daily): 10 (26.3%)
- LDL increase, patients (%) ([2]; 8 mg twice daily): 4 (10.5%)
- Nasopharyngitis, patients (%) ([2]; 8 mg twice daily): 3 (7.9%)
- Nausea, patients (%) ([2]; 8 mg twice daily): 4 (10.5%)
- Oroharyngeal pain, patients (%) ([2]; 8 mg twice daily): 2 (5.3%)
- Upper respiratory tract infection, patients (%) ([2]; 8 mg twice daily): 2 (5.3%)
- Acne, patients (%) ([2]; 12 mg twice daily): 6 (16.7%)
- Blood creatine phosphokinase increased, patients (%) ([2]; 12 mg twice daily): 1 (2.8%)
- Cough, patients (%) ([2]; 12 mg twice daily): 2 (5.6%)
- Diarrhoea, patients (%) ([2]; 12 mg twice daily): 0
- Folliculitis, patients (%) ([2]; 12 mg twice daily): 1 (2.8%)
- Headache, patients (%) ([2]; 12 mg twice daily): 7 (19.4%)
- LDL increase, patients (%) ([2]; 12 mg twice daily): 0
- Nasopharyngitis, patients (%) ([2]; 12 mg twice daily): 9 (25.0%)
- Nausea, patients (%) ([2]; 12 mg twice daily): 1 (2.8%)
- Oroharyngeal pain, patients (%) ([2]; 12 mg twice daily): 1 (2.8%)
- Upper respiratory tract infection, patients (%) ([2]; 12 mg twice daily): 7 (19.4%)
- serious adverse events ([2]; 4, 8, 12 mg BID, 24 weeks): no serious adverse events
- tolerability of treatment ([2]; 4, 8, 12 mg BID, 24 weeks): generally well-tolerated
- Grade 3/4 hematology events ([2]; preliminary analysis, total, distributed equally across placebo, 4 mg and 8 mg groups): 3
- separation from placebo ([3]; 4 mg BID, all measures): failed to separate from placebo on all measures
- patients achieving a ≥50% reduction in overall SALT score ([3]; 4 mg BID, week 24, vs 8.6% placebo (not significant)): 21%
- difference from placebo on SALT measures ([3]; 8 mg BID and 12 mg BID, week 24): significantly different from placebo on all SALT measures
- patients achieving a ≥90% reduction in overall SALT score ([3]; 8 mg BID, vs 2% placebo (p<0.05)): 16%
- patients achieving a ≥75% reduction in overall SALT score ([3]; 8 mg BID, vs 7% placebo (p<0.05)): 29%
- patients achieving a ≥50% reduction in overall SALT score ([3]; 8 mg BID, week 24, vs 8.6% placebo (p<0.001)): 47%
- effect of 12 mg BID compared to 8 mg BID ([3]; 12 mg BID vs 8 mg BID): numerically superior and generally produced faster onset and greater effect
- patients achieving a ≥90% reduction in overall SALT score ([3]; 12 mg BID, vs 2% placebo (p<0.001)): 36%
- patients achieving a ≥75% reduction in overall SALT score ([3]; 12 mg BID, vs 7% placebo (p<0.001)): 42%
- patients achieving a ≥50% reduction in overall SALT score ([3]; 12 mg BID, week 24, vs 8.6% placebo (p<0.001)): 58%
- start of significant changes in SALT score compared to placebo ([3]; 12 mg and 8 mg cohorts, p<0.05): 12 weeks
- difference of 12 mg BID and 8 mg BID dose groups from 4 mg BID dose group ([3]; p<0.05): significantly different
